{
  "source": "paper PMC13453992",
  "about": "“Comparison of ex vivo placenta perfusion and in vitro BeWo b30 cell models for assessing transfer of developmental and reproductive toxic compounds” (Archives of Toxicology, 2026)",
  "assay": "Fraction unbound in placental perfusion buffer by Rapid Equilibrium Dialysis",
  "format": "in vitro ADME",
  "settings": "placenta perfusion buffer with albumin; RED 4 hours at 37 °C",
  "method": "Free drug concentrations in perfusion buffer were determined using Rapid Equilibrium Dialysis (RED) single use plates (ThermoScientific, Rockford, USA) according to the manufacturer’s instructions. In short, placental perfusion buffer samples from multiple timepoints were loaded on one side of the RED and clean placenta perfusion buffer without albumin was added to the other side. This was incubated on a ThermoMixer C (Eppendorf Nederland B.V., Nijmegen, The Netherlands) at 250 rpm for 4 hours at 37 °C. The average from all measurements was taken to determine the average fraction unbound for each ex vivo placenta perfusion experiment.",
  "data": [
    {"smiles": "Cc1cc(=O)n(-c2ccccc2)n1C", "note": "[Antipyrine, antipyrine]", "values": [
      {"measurement": "Fraction unbound", "result": "95 ± 2", "unit": "%"}
    ]}
  ]
}
